Where no end group is shown, it is not given here.

The source of these data is patent US20240209043A1, “NON-ANTIBODY BINDING PEPTIDES AND THEIR ANALOGS DUAL-TARGETING TO PD-1 AND PD-L1, AND USES THEREOF” (ORAL SUBSIDIARY SUN YAT-SEN UNIVERSITY HOSPITAL, priority 2021, published 2024).

Series [1] concerns the target T1, recombinant Human PD-L1 protein binding to PD-1-expressing Jurkat T cells (Homo sapiens, UniProt Q15116).
T1 construct: when Jurkat cells were stimulated by PMA, they highly expressed PD-1; host or cells: Jurkat T cells stimulated with PMA and ionomycin
Nature of the series: Neutralization of recombinant Human PD-L1 protein binding to PD-1-expressing Jurkat T cells (flow cytometry). The settings on record: peptide 0.4-40 μM mixed with PD-L1 protein, stimulated Jurkat T cells. The format is cell-based. The method, then:
The Jurkat T cells were divided into two groups, an experimental group and a control group, wherein in the experimental group, 50 ng/ml of Phorbol 12-myristate 13-acetate (PAM) and 1 ug/ml of Ionomycin Calcium Salt (Ionomycin) were used to stimulate the cells, and in the control group, Jurkat T cells were unstimulated. The cells (5×10^5) were collected in each tube, and washed once with FACS buffer (PBS with 2% BSA). Then recombinant Human PD-L1 protein (PD1-H82F3, Acro Biosystems) was diluted to 4 ug/ml with FACS, and PD-1 binding peptides were diluted with FACS to a series of concentrations of 0.4 μM, 1.33 μM, 4 μM, 13.3 μM, and 40 μM. Subsequently, the two working solutions (PD-L1 protein diluent and peptide diluent) were mixed in an equal volume and 100 ul of mixed solutions at different concentrations were added to the centrifuge tubes together with the cells, incubated for 1 hour at 4° C. FACS buffer was used for washing the cells three times, and 0.12 ug/ml of APC Streptavidin (405207, Biolegend) was added to each tube and the incubation was performed for 1 hour at 4° C., and then the cells were washed three times with FACS buffer again, and 500 μl of PBS was added to resuspend the cells, which were further transferred to flow tubes and analyzed by flow cytometry.
Further, neutralization capacity of nABP284 and new peptides to recombinant Human PD-L1 protein were studied. […]

For series [2], the target named is T2, PD-1 expressed on the surface of stimulated Jurkat T cells (Homo sapiens, UniProt Q15116).
T2 construct: when Jurkat cells were stimulated by PMA, they highly expressed PD-1; endogenous in cells; host or cells: Jurkat T cells stimulated with PMA and ionomycin
As to the kind of experiment: Blocking capacity: competitive binding to PD-1 on stimulated Jurkat T cells (immunofluorescence, mean fluorescence intensity). The class given is cell-based. To be noted: 1 hour incubation, equal concentration. As for the experimental part:
Experiments were divided into an experimental group and a control group. In the experimental group, Jurkat T cells were stimulated for 24 hours with 50 ng/ml of Phorbol 12-myristate 13-acetate (PMA) and 1 ug/ml of Ionomycin Calcium Salt (Ionomycin) to express PD-1, while in the control group, Jurkat T cells were not stimulated and thus hardly expressed any PD-1. For immunofluorescence analysis, Jurkat T cells (1×10^6) were obtained and blocked with 2% BSA for 1 hour at room temperature to decrease specific binding. After blocking, the cells were collected and incubated with 10 μM of peptides stained with FITC (green fluorescence) for 1 hour at 37° C. PBS was used for washing the cells three times and 4% paraformaldehyde was used for immobilization. […] PBS was used for washing three times again and anti-fade mounting medium was used for preserving fluorescence. Further, fluorescence confocal microscope images were analyzed by using Image J software to evaluate the ability of polypeptides to compete the binding sites of PD-1. […] Subsequently, the cells were incubated with 10 μM or 40 μM of peptides stained with FITC (green fluorescence) for 1 hour at 4° C. PBS was used for washing three times, and finally 500 ul of PBS was used for resuspending the cells, which were then transferred to flow tubes and analyzed by flow cytometry (CytoFLEX, BECK MANCOULTER, America). […]

For the next series, the system named is Jurkat T cells. Nature of the series: CCK-8 cytotoxicity assay on Jurkat T cells. The format is cell-based, Human. The settings on record: CCK-8, 1-64 μM, 24 hours. As for the experimental part: (§1) Cytotoxicity assay was performed and measured with Cell Counting Kit-8 (CCK-8, Dujindo, Japan). Jurkat cells (each well with 4000 cells), PBMCs (each well with 4000 cells) and Cal27 cells (each well with 2000 cells) were added into a 96-well plate and cultured for 24 hours, respectively. nABP284, nABP386 and nABP486 in a concentration gradient of 1 μM, 2 μM, 3 μM, 4 μM, 8 μM, 16 μM, 32 μM and 64 μM were added into the medium and the cells were cultured for 24 hours in a cell incubator. After that, 10 μl of CCK-8 solution was added to each well and the cells were incubated for 2 hours. VictorX5 Multilabel plate reader (PerkinElmer, Singapore) was used for measuring absorbance of each well at 450 nm. Cell viability (%) was calculated by the following formula:
(§2) Cell viability (%)=[(Sample A−Background A)/(Control A−Blank A)×100%. • Wherein Sample A denotes the absorbance of the experimental well (including cells, CCK-8 solution, medium and peptide diluent) • Background A denotes the absorbance of the background hole (including CCK-8 solution, medium, and peptide diluent without cells); • Control A denotes the absorbance of the control hole (including cells, CCK-8 solution and medium without peptide diluent); and • Blank A denotes the absorbance of the blank hole (including CCK-8 solution and medium without cells and peptide diluent).

Series [3] deals with T3, PD-1 on the surface of Jurkat T cells (Homo sapiens, UniProt Q15116).
T3 construct: when Jurkat cells were stimulated by PMA, they highly expressed PD-1; endogenous in cells; host or cells: Jurkat T cells stimulated with PMA and ionomycin
As to the kind of experiment: Immunofluorescence and flow cytometry analysis of specific binding of FITC-stained peptides to Jurkat T cells. The class given is cell-based. To be noted: flow cytometry; 10 μM or 40 μM FITC peptide. The method, then:
Experiments were divided into an experimental group and a control group. In the experimental group, Jurkat T cells were stimulated for 24 hours with 50 ng/ml of Phorbol 12-myristate 13-acetate (PMA) and 1 ug/ml of Ionomycin Calcium Salt (Ionomycin) to express PD-1, while in the control group, Jurkat T cells were not stimulated and thus hardly expressed any PD-1. For immunofluorescence analysis, Jurkat T cells (1×10^6) were obtained and blocked with 2% BSA for 1 hour at room temperature to decrease specific binding. After blocking, the cells were collected and incubated with 10 μM of peptides stained with FITC (green fluorescence) for 1 hour at 37° C. PBS was used for washing the cells three times and 4% paraformaldehyde was used for immobilization. […] PBS was used for washing three times again and anti-fade mounting medium was used for preserving fluorescence. Further, fluorescence confocal microscope images were analyzed by using Image J software to evaluate the ability of polypeptides to compete the binding sites of PD-1. […] Subsequently, the cells were incubated with 10 μM or 40 μM of peptides stained with FITC (green fluorescence) for 1 hour at 4° C. PBS was used for washing three times, and finally 500 ul of PBS was used for resuspending the cells, which were then transferred to flow tubes and analyzed by flow cytometry (CytoFLEX, BECK MANCOULTER, America).

A further series relates to tumor. To be noted: prior patent; cited from earlier work.
Series [4] deals with T4, PD-1 (Homo sapiens, UniProt Q15116). Nature of the series: SPR affinity assay on recombinant Human PD-1 protein (Biocore T100, CM5 chip). Set-up: purchased Acro Biosystems PD1-H5221. The format is binding. As for the experimental part:
The affinity of the peptides was tested with Biocore T100 through surface plasmon resonance (SPR) technique. […] Finally, the affinities (Kd-value) of the peptides were calculated by fitting curves in the sensor diagram in Biacore software.
The binding affinities (Kd-value) of nABP386, nABP486, and nABP786 to PD-1 were detected by Surface plasma resonance (SPR), respectively.
Target sequence in this assay (Q15116 25-167 limits assumed): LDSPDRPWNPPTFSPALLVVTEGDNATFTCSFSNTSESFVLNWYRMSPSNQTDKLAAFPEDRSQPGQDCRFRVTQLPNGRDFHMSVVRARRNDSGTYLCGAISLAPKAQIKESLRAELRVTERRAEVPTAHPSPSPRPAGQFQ

The test system of series [5] is PD-1/PD-L1 interaction in Jurkat T / Cal27 co-culture. Nature of the series: Co-culture of stimulated Jurkat T cells and stimulated Cal27 cells, IL-2 ELISA. The format is cell-based, Human. To be noted: 10 μM peptide or 2 ug/ml antibody, 24 hours co-culture, compared with the control group. The method, then:
50 ng/ml of Phorbol 12-myristate 13-acetate (PMA) and 1 ug/ml of Ionomycin Calcium Salt (Ionomycin) were used for stimulating Jurkat T cells for 24 hours, and 500 U/ml of IFN-γ was used for stimulating CAL27 cells for 48 hours. The stimulated Jurkat T cells were incubated with 10 μM of nABP284, 10 μM of nABP386, 10 μM of nABP486, and 2 ug/ml of PD-1 functional monoclonal antibody (J116, eBioscience|ThermoFisher Science) for 1 hour in advance at 37° C., respectively, and the stimulated CAL27 cells were added to the 96-well plate at 1×10^4 cells per well. When CAL27 cells were immobilized, a supernate was removed. The Jurkat T cells at a ratio of 4 to 1 and 200 ul of medium were added to each well. After these cells were co-cultured for 24 hours, a supernate was collected and analyzed by ELISA kit (88-7025-86, Thermo Fisher Scientific) to measure the amount of IL-2 in the supernate.

For series [6], the target named is T4, PD-1. To be noted: in vitro, prior patent; cited from earlier work.
Target sequence in this assay (Q15116 25-288): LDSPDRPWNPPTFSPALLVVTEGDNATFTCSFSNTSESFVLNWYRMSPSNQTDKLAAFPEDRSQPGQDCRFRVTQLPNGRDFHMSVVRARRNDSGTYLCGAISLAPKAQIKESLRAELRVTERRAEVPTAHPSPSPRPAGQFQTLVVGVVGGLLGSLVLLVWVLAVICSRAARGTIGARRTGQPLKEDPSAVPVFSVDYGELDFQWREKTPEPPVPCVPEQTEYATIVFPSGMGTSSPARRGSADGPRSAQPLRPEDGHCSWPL
The next series deals with Cal27 cells. As to the kind of experiment: CCK-8 cytotoxicity assay on Cal27 cells. The format is cell-based, Human. To be noted: CCK-8, 1-64 μM, 24 hours. The method, then:
as §1, §2

T1 sequence (Q15116 25-288): as above
T2 sequence (Q15116 25-288): as above
T3 sequence (Q15116 25-288): as above

In the case of “SRLKEIANSPTQFWRMVARNTLGGAKQSLNIEHARL [nABP284]”, the “neutralization capacity to recombinant Human PD-L1 protein” value in [1] is recorded as “can be inhibited”. Also, the “blocking capacity on PD-1 (mean fluorescence intensity)” value in [2] is recorded as “have a blocking capacity on PD-1 expressed on the surface of stimulated Jurkat T cells”. Moreover, the “direct cytotoxicity to Jurkat T cells” value in the series on Jurkat T cells was “no directly cytotoxicity”. Also, the “binding rate to PD-1-expressing Jurkat T cells” value in [3] is reported as “may increase with its increasing concentration”. For the same sequence, the “tumor growth in mice” value with tumor is on record as “inhibit tumor growth in mice”. For the same sequence, on PD-1 [4], the “binding affinity to PD-1, in words” value was “can specifically bind to PD-1 with moderate affinity”. Also, the “secretion level of IL-2 in the co-culture system” value in series [5] is on record as “significantly increased”. On PD-1 [6], the “blocking of PD-L1 ligand binding to PD-1” value is listed as “can block the binding of PD-L1 ligand to PD-1”; the “secretion of IL-2 and tumor cytotoxicity of T lymphocytes” value was “enhance the secretion of interleukin 2 (IL-2) and tumor cytotoxicity of T lymphocytes”. In addition, the “direct cytotoxicity to Cal27 cells” value in the series on Cal27 cells is on record as “no directly cytotoxicity”.
